# Measured values reported in publication PMC6028453, “BrlR from Pseudomonas aeruginosa is a receptor for both cyclic di-GMP and pyocyanin” (Nature Communications, 2018).
# T1: BrlR (UniProt Q9HUT5 1-270)
# T1 sequence: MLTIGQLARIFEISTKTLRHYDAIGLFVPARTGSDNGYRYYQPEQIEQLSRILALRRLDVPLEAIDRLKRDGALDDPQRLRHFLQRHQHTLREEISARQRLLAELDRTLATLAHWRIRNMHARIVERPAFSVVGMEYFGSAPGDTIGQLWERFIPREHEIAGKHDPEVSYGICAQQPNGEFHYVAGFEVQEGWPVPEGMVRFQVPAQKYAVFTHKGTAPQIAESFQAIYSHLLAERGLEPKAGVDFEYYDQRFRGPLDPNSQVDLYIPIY
# B1: BrlR (PA4878) (natural protein)
# chain: T1 sequence
# notes: also called apo-BrlR; BrlR WT; source: E. coli BL21 DE3, purified (Ni-NTA, tag cleaved by UlpI, Source Q, Superdex 200); not shown: His6-SUMO, N-terminal, cleaved
# B2: PmexE (dsDNA)
# DNA 1: AATCTCGTCGTTCGATTAGTTCCCTGCCGGAGCAGCCCGCAGACTTCGCCAATCCCGAAAAACCGACTGGCGGAGT
# DNA 2: ACTCCGCCAGTCGGTTTTTCGGGATTGGCGAAGTCTGCGGGCTGCTCCGGCAGGGAACTAATCGAACGACGAGATT
# B3: PmexA (dsDNA)
# DNA 1: ACACCTATGAATGTAAGTATTTTGCCTGCCTTCTTCGAGCCGGTGCAGCGCCTTCACGCTGCATCGGCCGCTTTCGCT
# DNA 2: AGCGAAAGCGGCCGATGCAGCGTGAAGGCGCTGCACCGGCTCGAAGAAGGCAGGCAAAATACTTACATTCATAGGTGT
# How the values were obtained:
# [1] = molecular target: T2, BrlR (Pseudomonas aeruginosa, UniProt Q9HUT5); experiment: Surface plasmon resonance (SPR) analysis; assay type: binding; conditions: SPR, immobilized BrlR; for Kd: steady state, 25 °C
# T2 construct: His6-SUMO (N, cleaved yes); made in house; host or cells: E. coli BL21 DE3
# Procedure: The binding affinity of diverse toxic compounds for BrlR were investigated by SPR using a BIAcore-T200 apparatus (GE Healthcare). The ligand, BrlR (20 μM in 10 mM sodium acetate, pH 4.5), was immobilized on an activated CM5 sensor chip by amine coupling (BIAcore) with 4400 response units (RU), and the unreacted sites were blocked with 1.0 M ethanolamine–HCl (pH 8.5). Steady-state binding analysis was performed with injections of different molecules at different concentrations over the immobilized BrlR surface at a flow rate of 20 μL min^−1 at 25 °C. Association was measured for 180 s, followed by 120 s of dissociation in running buffer (20 mM Hepes pH 7.5, 150 mM NaCl). The sensorgrams for specific interactions were obtained by subtracting the reference unimmobilized flow cell response from that of the sample. Since BrlR only has one binding site for pyocyanin or other toxic compounds (Fig. 5a–f), the kinetic analysis of the sensorgrams from analyte interaction with the immobilized BrlR was performed by fitting the binding curves to a 1:1 binding model. To determine the steady state KD values, equilibrium responses were plotted against analyte concentrations, and the resulting curves were fitted to the steady state model in the BIAevaluation software package, version 3.0 (GE Healthcare).
# [2] = system: brlR transcription; experiment: qRT-PCR of brlR transcript; assay type: cell-based, P. aeruginosa PAO1; conditions: ΔphzMSH strain still produces PCA; strain PAO1
# Procedure: PAO1 WT strains were grown under different conditions. For c-di-GMP effects, overexpression of PA4843 in PAO1 (PAO1/pHERD20T-PA4843) relative to WT cells (PAO1/ pHERD20T) was determined. When P. aeruginosa strains entered mid-log phase, arabinose was added to induce gene expression. To test pyocyanin’s effect, a P. aeruginosa PAO1 WT strain cells with high pyocyanin production was determined relative to a ΔphzA1-G1/phzA2-G2 strain not producing phenazine and a ΔphzMSH strain not producing pyocyanin.
# Total RNA was extracted using a MiniBEST Universal RNA Extraction Kit (TaKaRa) and cDNA synthesis was performed using a PrimeScript RT reagent Kit (TaKaRa). Primers for RT-PCR listed in Supplementary Table 1 were designed using the program PrimerExpress (Applied Biosystems). The RT-PCR reactions were performed on a CFX96 Real-Time PCR Detection System (Bio-Rad) using SYBR Premix Ex Taq™ (TaKaRa). Expression of the target genes was normalized to the expression of 16 S RNA. The relative transcript abundance was calculated according to the 2^−ΔΔCt method. Five biological replicates were performed per sample. The data were analyzed with a one-tailed t-test (***P ≤ 0.001).
# [3] = molecular target: T3, BrlR-DNA binding (PbrlR) (Pseudomonas aeruginosa, UniProt Q9HUT5); experiment: EMSA, wild-type BrlR with PbrlR DNA; assay type: biochemical; conditions: wild-type BrlR, increasing concentrations of compound
# T3 construct: His6-SUMO (N, cleaved yes); made in house; host or cells: E. coli BL21 DE3
# Procedure: A 6-carboxy-fluorescein (FAM)-labeled 36-bp brlR promoter DNA (PbrlR) or 80-bp mexA/mexE promoter DNA (PmexA/PmexE) probes (~0.375 pmol), BrlR protein and varying amounts of inducers were incubated in binding buffer (10 mM Tris HCl [pH 7.4], 50 mM KCl, 1 mM DTT, […] and 5 ng/mL poly [dI-dC]) for 60 min at 25 °C. Finally, glycerol was added to a concentration of 6.5%. The samples were subjected to a 5% polyacrylamide gel electrophoresis and run in 0.5 × Tris-borate-EDTA buffer at 80 V for 1 h at room temperature. Imaging and data analyses were performed using a Typhoon Scanner (GE Healthcare) and Imagequant software. The probes used are listed in Supplementary Table 1.
# [4] = molecular target: T2, BrlR; experiment: Fluorescence polarization (FP) binding assay, wild-type BrlR; conditions: 1 nM fluorescent ligand, 25 °C
# Text: The most striking feature of the BrlR–c-di-GMP complex is the c-di-GMP-binding mode. The DNA-binding domain contains two separate c-di-GMP-binding sites, and shares a mutually intercalated c-di-GMP dimer in a stacking conformation with a crystallographic symmetry related binding site (Fig. 2a–c). […] The interactions stabilizing the c-di-GMPs are different for the two binding sites (Fig. 2d, e, and details are described in Supplementary Note 1). […] This structural feature allows us to perform fluorescence polarization (FP)-based binding assays[19],[23],[24] by using a fluoresceinated c-di-GMP analog, 2′-Fluo-AHC-c-di-GMP (F-c-di-GMP), containing a fluorophore attached to one of the 2′-ribose hydroxyls (Fig. 2f).
# F-c-di-GMP and F-c-di-AMP both contain a fluorophore at one of the 2′-ribose hydroxyls of c-di-GMP and c-di-AMP, respectively (Fig. 2f). To measure the binding of c-di-GMP and c-di-AMP to BrlR variants, 1 nM F-c-di-GMP or F-c-di-AMP was incubated with increasing amounts of indicated BrlR WT, BrlR mutation, or BrlR-C in reaction buffer (25 mM HEPES, 100 mM NaCl, pH 7.5) at 25 °C for 20 min. 1 nM fluorescein was incubated with BrlR WT in the same reaction buffer at 25 °C. FP measurements were conducted on a Synergy 4 Microplate Reader (BioTek) at 25 °C. All experiments were performed in triplicate. The curves were fitted to deduce binding affinities by GraphPad Prism 5.
# [5] = molecular target: T4, BrlR-C (Pseudomonas aeruginosa, UniProt Q9HUT5); experiment: FP competition experiment, BrlR-C; assay type: binding; conditions: 550 μM BrlR-C, 1 nM F-c-di-GMP
# T4 construct: His6 (cleaved yes); made in house; host or cells: E. coli (same protocol as BrlR, induction at 18 °C)
# Procedure: Supplementary Figure 11: FP analyses of F-c-di-GMP binding to BrlR-C. (a) Isotherms of BrlR-C binding to F-c-di-GMP. The binding experiment was carried out at 25 °C in a buffer containing 150 mM NaCl, 25 mM Tris·HCl (pH 7.5), and 1 nM F-c-di-GMP. Increasing concentrations of BrlR-C were titrated into the reaction mixture to obtain the binding isotherms. (b) Fluorescence polarization competition experiment of BrlR-C. As a control, 550 μM BrlR-C was added to the reaction tube containing 1 nM F-c-di-GMP, and different competitors were respectively added in the solution and the values of millipolarization were recorded.
# (1 picture or pasted object on this page, not shown here)
# [6] = system: P. aeruginosa PAO1; experiment: Planktonic antibiotic susceptibility testing, PAO1; assay type: cell-based, Pseudomonas aeruginosa; conditions: for decrease of CFU number (log reduction): PAO1, 50 μg/ml tobramycin 1 h; for reduction in CFU number: cells harboring pHERD20T-PA2133 (low c-di-GMP), 50 μg/ml tobramycin 1 h
# Procedure: To determine the role of pyocyanin in antimicrobial susceptibility, P. aeruginosa strains (Supplementary Table 2) were grown at 37 °C in 20-fold diluted LB medium supplemented with or without 0.2 mM pyocyanin, which was purified from stationary phase cultures of PAO1. Tobramycin was added to the mid-log phase (OD600 = 0.8) cells suspension to a final concentration of 50 μg/ml; after 1 h, the broth was serially diluted and spread-printed onto LB agar (medium containing 300 μg/ml carbenicillin was used for the cells harboring plasmid) to determine the cell viability via CFU counts. The cell suspensions without tobramycin were set as controls. Susceptibility is expressed as a logarithmic reduction in CFU amount. The data were analyzed with a one-tailed t-test (***P ≤ 0.001).
# [7] = molecular target: the molecule itself; experiment: crystal structure; apo-BrlR, 3.1 Å, space group P65, four BrlR molecules in the asymmetric unit; crystals from 1.8 M sodium acetate pH 7.0, 0.1 M Bis-Tris propane pH 7.0, 20 °C
# [8] = molecular target: T1, BrlR; experiment: EMSA; pyocyanin (enhances); conditions: protein: recombinant; tags: none (His6-SUMO removed); chain copies: 4; label: 5' FAM on strand 1; blunt
molecule,measurement,setting,value
Nc1ncnc2c1ncn2[C@@H]1O[C@H](COP(=O)(O)O)[C@@H](O)[C@H]1O [AMP],binding to BrlR in SPR (in words),[1],does not bind
CNC(C)C1CCC(N)C(OC2C(N)CC(N)C(OC3OCC(C)(O)C(NC)C3O)C2O)O1 (centres unmarked) [Gentamicin],Kd,[1],~470 µM
"O=C(O)c1cccc2nc3ccccc3nc12 [PCA, phenazine-1-carboxylic acid]",effect on brlR transcription,[2],could not up-regulate
Nc1ncnc2c1ncn2[C@@H]1O[C@@H]2COP(=O)(O)O[C@H]3[C@@H](O)[C@H](n4cnc5c(N)ncnc54)O[C@@H]3COP(=O)(O)O[C@H]2[C@H]1O [c-di-AMP],effect on BrlR-PbrlR DNA binding (in words),[3],significantly promoted
O=C1OC2(c3ccc(O)cc3Oc3cc(O)ccc32)c2ccccc21 [fluorescein],Kd,[4],33.6 ± 1.6 µM
CCn1cc(C(=O)O)c(=O)c2cc(F)c(N3CCNCC3)cc21 [norfloxacin],binding to BrlR in SPR (in words),[1],signals were not sufficiently high
CN(C)[C@@H]1C(O)=C(C(N)=O)C(=O)[C@@]2(O)C(O)=C3C(=O)c4c(O)cccc4[C@@](C)(O)[C@H]3C[C@@H]12 [tetracycline],binding to BrlR in SPR (in words),[1],signals were not sufficiently high
NC[C@H]1O[C@H](O[C@H]2[C@H](O)[C@@H](O[C@H]3O[C@H](CO)[C@@H](O)[C@H](N)[C@H]3O)[C@H](N)C[C@@H]2N)[C@H](N)C[C@@H]1O [tobramycin],competition with F-c-di-GMP binding to BrlR-C,[5],outcompeted
same,Kd,[1],640 µM
same,effect on BrlR-PbrlR DNA binding (in words),[3],did not result in an observable difference
same,decrease of CFU number (log reduction),[6]; absence of pyocyanin,~ 3.4 order of magnitude
same,decrease of CFU number (log reduction),[6]; presence of 0.2 mM pyocyanin,~ 1.5 order of magnitude
same,reduction in CFU number,[6]; with addition of pyocyanin,1.7 order of magnitude
same,reduction in CFU number,[6]; without pyocyanin,4.3 order of magnitude
B1,stoichiometry N,[7],4
B2,binding result,[8],binds
B3,binding result,[8],binds
